“And” between values parts separate entries of the source, which are not always exact repeats. Equal entries are not always repeated. Toxic doses and inconclusive results are not listed. Rule as the data show it: active = T/C of 150% or more; inactive = T/C below 125%.
Test system: L1210 leukemia ip in BDF1 mice, survival T/C
Experiment: NCI In Vivo Anticancer Drug Screen. Data for tumor model L1210 Leukemia (intraperitoneal) in B6D2F1 (BDF1) mice
Details: endpoint: mean survival time, higher = longer survival
Summary of the method: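 Transplantable tumor model; survival measured in treated vs vehicle control mice. Value = treated/control.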

[1] = dose: 100.0 mg/kg/injection, schedule: Q01DX009 (ip), vehicle: saline with Tween-80
[2] = dose: 100.0 mg/kg/injection, schedule: Q04DX003 (ip), vehicle: saline with Tween-80
[3] = dose: 200.0 mg/kg/injection, schedule: Q01DX009 (ip), vehicle: saline with Tween-80
[4] = dose: 200.0 mg/kg/injection, schedule: Q04DX003 (ip), vehicle: saline with Tween-80
[5] = dose: 400.0 mg/kg/injection, schedule: Q01DX009 (ip), vehicle: saline with Tween-80
[6] = dose: 400.0 mg/kg/injection, schedule: Q04DX003 (ip), vehicle: saline with Tween-80
[7] = dose: 75.0 mg/kg/injection, schedule: Q01DX001 (ip), vehicle: other
[8] = dose: 150.0 mg/kg/injection, schedule: Q01DX001 (ip), vehicle: other
[9] = dose: 75.0 mg/kg/injection, schedule: Q01DX001 (ip), vehicle: saline
[10] = dose: 150.0 mg/kg/injection, schedule: Q01DX001 (ip), vehicle: saline
[11] = dose: 200.0 mg/kg/injection, schedule: Q01DX001 (ip), vehicle: Klucel (hydroxypropylcellulose) (HPC)
[12] = dose: 400.0 mg/kg/injection, schedule: Q01DX001 (ip), vehicle: Klucel (hydroxypropylcellulose) (HPC)
[13] = dose: 100.0 mg/kg/injection, schedule: Q04DX003 (ip), vehicle: saline
[14] = dose: 200.0 mg/kg/injection, schedule: Q04DX003 (ip), vehicle: saline
[15] = dose: 400.0 mg/kg/injection, schedule: Q04DX003 (ip), vehicle: saline
[16] = dose: 50.0 mg/kg/injection, schedule: Q04DX003 (ip), vehicle: saline with Tween-80

Measured: T/C

CCOC(=O)CCC(NC(=O)c1ccc(N(C)S(=O)(=O)c2ccc(C)cc2)c2ccccc12)C(=O)OCC (centres undefined)
inactive: [1] 108 % of control | [2] 97 % of control | [3] 94 % of control | [4] 100 % of control | [5] 92 % of control | [6] 100 % of control

CC(C)CCCC(C)C1CCC2C3CC(O)C4=CC(O)CCC4(C)C3CCC12C (centres undefined)
inactive: [7] 92 % of control | [8] 93 % of control

OCC1OC(n2cc(Cl)c3cncnc32)C(O)C1O (centres undefined)
inactive: dose: 50.0 mg/kg/injection, schedule: Q01DX005 (ip), vehicle: saline 101 % of control

O=C(c1ccccc1)c1c(-c2ccccc2)c(-c2ccccc2)n(-c2ccccc2)c1C(=O)c1ccccc1
inactive: dose: 22.2 mg/kg/injection, schedule: Q01DX001 (ip), vehicle: carboxymethylcellulose (CMC) 94 % of control and 96 % of control | dose: 33.35 mg/kg/injection, schedule: Q01DX001 (ip), vehicle: carboxymethylcellulose (CMC) 91 % of control | dose: 50.0 mg/kg/injection, schedule: Q01DX001 (ip), vehicle: carboxymethylcellulose (CMC) 94 % of control | dose: 75.0 mg/kg/injection, schedule: Q01DX001 (ip), vehicle: carboxymethylcellulose (CMC) 94 % of control

CCOc1ccc2c(ccc(/C=C\c3ccc(O)c4ccccc34)[n+]2C)c1
inactive: dose: 15.0 mg/kg/injection, schedule: Q01DX001 (ip), vehicle: saline 96 % of control | dose: 30.0 mg/kg/injection, schedule: Q01DX001 (ip), vehicle: saline 96 % of control | dose: 60.0 mg/kg/injection, schedule: Q01DX001 (ip), vehicle: saline 97 % of control | [9] 106 % of control | [10] 101 % of control

O=C1OC(=O)C2C1C1C=CC2C12CC2 (centres undefined)
inactive: dose: 50.0 mg/kg/injection, schedule: Q01DX009 (ip), vehicle: saline with Tween-80 97 % of control | [1] 102 % of control | [3] 105 % of control

Oc1ccc2ccnc(Cc3ccc(Br)cc3)c2c1
inactive: [11] 89 % of control | [12] 89 % of control

O=C(OC(=Nc1ccccc1)N(c1ccccc1)c1ccccc1)c1ccccc1
inactive: dose: 100.0 mg/kg/injection, schedule: Q01DX001 (ip), vehicle: saline 91 % of control | dose: 200.0 mg/kg/injection, schedule: Q01DX001 (ip), vehicle: saline 95 % of control | dose: 400.0 mg/kg/injection, schedule: Q01DX001 (ip), vehicle: saline 94 % of control

COC(=O)C(CCC#N)(CCC#N)C(C)=O
inactive: dose: 100.0 mg/kg/injection, schedule: Q01DX001 (ip), vehicle: Klucel (hydroxypropylcellulose) (HPC) 96 % of control | [11] 91 % of control | [12] 89 % of control

CC1C=NNC1=O (centres undefined)
inactive: [1] 124 % of control | dose: 100.0 mg/kg/injection, schedule: Q01DX009 (ip), vehicle: saline 115 % of control | [13] 104 % of control | [14] 112 % of control | dose: 300.0 mg/kg/injection, schedule: Q#B X027 (ip), vehicle: saline 89 % of control | [15] 109 % of control

Nc1ncnc(N)c1NC(=O)c1cccc(C(=O)c2ccccc2)c1
inactive: [13] 101 % of control | [14] 100 % of control | [15] 96 % of control

C=C(C)c1ccc(C)c(C)c1
inactive: dose: 25.0 mg/kg/injection, schedule: Q04DX003 (ip), vehicle: saline with Tween-80 100 % of control | [16] 106 % of control | [2] 94 % of control | [4] 95 % of control | [6] 90 % of control

Cc1cc(N(CCO)CCO)c(C)cc1NC(=O)c1ccccc1
inactive: dose: 100.0 mg/kg/injection, schedule: Q01DX001 (ip), vehicle: carboxymethylcellulose (CMC) 106 % of control | dose: 200.0 mg/kg/injection, schedule: Q01DX001 (ip), vehicle: carboxymethylcellulose (CMC) 101 % of control | dose: 400.0 mg/kg/injection, schedule: Q01DX001 (ip), vehicle: carboxymethylcellulose (CMC) 94 % of control

COC(=O)c1ccc(-c2cc(Cl)c3cc(S(=O)(=O)F)ccc3n2)cc1
inactive: [1] 94 % of control | [3] 100 % of control | [5] 95 % of control

S=c1cccc[nH]1.[Pb]
inactive: dose: 100.0 mg/kg/injection, schedule: Q04DX002 (ip), vehicle: gum acacia 103 % of control | dose: 200.0 mg/kg/injection, schedule: Q04DX002 (ip), vehicle: gum acacia 100 % of control

c1ccc(Oc2ccccn2)cc1
inactive: dose: 50.0 mg/kg/injection, schedule: Q04DX003 (ip), vehicle: Klucel (hydroxypropylcellulose) (HPC) 91 % of control | dose: 100.0 mg/kg/injection, schedule: Q04DX003 (ip), vehicle: Klucel (hydroxypropylcellulose) (HPC) 94 % of control | dose: 200.0 mg/kg/injection, schedule: Q04DX003 (ip), vehicle: Klucel (hydroxypropylcellulose) (HPC) 94 % of control | dose: 400.0 mg/kg/injection, schedule: Q04DX003 (ip), vehicle: Klucel (hydroxypropylcellulose) (HPC) 97 % of control

CC(=O)Nc1ccc(S(=O)(=O)NC(=O)NCCC(C)C)cc1
inactive: [2] 94 % of control | [4] 102 % of control | [6] 102 % of control

C/C=C(\CC)C1(CCC)C(=O)NC(=O)N(C)C1=O (centres undefined)
inactive: [7] 103 % of control | [9] 95 % of control | [8] 103 % of control | [10] 106 % of control | dose: 300.0 mg/kg/injection, schedule: Q01DX001 (ip), vehicle: other 101 % of control | dose: 300.0 mg/kg/injection, schedule: Q01DX001 (ip), vehicle: saline 106 % of control

CCCC[N+](C)(C)CCCOC(=O)C1C2CC3OC(=O)C1C3C2 (centres undefined)
inactive: dose: 12.5 mg/kg/injection, schedule: Q01DX003 (ip), vehicle: saline with Tween-80 97 % of control | dose: 25.0 mg/kg/injection, schedule: Q01DX003 (ip), vehicle: saline with Tween-80 100 % of control | dose: 50.0 mg/kg/injection, schedule: Q01DX003 (ip), vehicle: saline with Tween-80 97 % of control | [16] 101 % of control | [2] 103 % of control
